From US6867192B1, “Compounds useful in the treatment of inflammatory diseases” (priority 1998, dated 2005)

Biological target: T1, integrin VLA-4, expressed on the Jurkat J6 (human lymphoblast cell line) cell membrane with VCAM-1 (Homo sapiens, UniProt P05556+P13612)
T1 construct: integrin VLA-4, expressed on the Jurkat J6 (human lymphoblast cell line) cell membrane; endogenous in cells; host or cells: Jurkat J6 cells (integrin). zzVCAM-1 was made in house in Drosophila melanogaster S2 cells
Test: Jurkat J6/VCAM-1 adhesion assay
Format: cell-based
Conditions: Jurkat J6 cell adhesion to VCAM-1, 1 mM MnCl2; mean of n experiments
Method: (1) Jurkat J6/VCAM-1 Adhesion Assay
This assay was used to investigate the interaction of the integrin VLA-4, expressed on the Jurkat J6 (human lymphoblast cell line) cell membrane with VCAM-1. Polystyrene 96-well microtitre plates were coated with human immunoglobulin G (IgG; Sigma Chemicals, UK, Product No. 14506) at a concentration of 0.05 mg ml^−1 in bicarbonate buffer (36 mM NaHCO3 and 22 mM Na2CO3, prepared in Dulbecco's phosphate buffered saline at pH 9.8 (PBS); Sigma Chemicals, UK, Product No. 14190-094) for 2 hours at 37° C. This solution was then aspirated and the plates were washed twice with PBS.
VCAM-1 was prepared by cloning its constituent seven domains into a Drosophila expression system with a zz (Protein A) tag. This zzVCAM-1 was then expressed from Drosophila melanogaster S2 cell culture, induced with copper. Protease inhibitors were added and the culture supernatant was clarified either by filtration through a 0.2 μm filter or by centrifugation. The zzVCAM-1 was then purified from this clarified medium using an IgG agarose column, equilibrated with either 20 mM sodium phosphate pH 7.2 alone or in the presence of 0.5M sodium chloride. Elution of zzVCAM-1 from the column was mediated using 3M ammonium thiocyanate, which was subsequently removed using a G25 desalting column, equilibrated with 20 mM sodium phosphate, pH 7.2. The purified zzVCAM-1 was then concentrated to a small volume (Amicon stirred cell concentrators) until a concentration of 62.5 ng ml^−1 was obtained, calculated using the extinction coefficient value.
This solution of zzVCAM-1 was then incubated overnight at 4° C. in the IgG coated microtitre plates with 3% bovine serum albumin (BSA) in PBS, followed by aspiration and two further washes with PBS. A concentration of the Jurkat J6 cells (6×10^6 cels ml^−1), grown in cell media RPMI 1640 (HyClone Ltd, Product No. B-9106-L) supplemented with 10% heat inactivated fetal calf serum (FCS; Gibco BRL, Product No. 10099-075) and 2 mM L-glutamine, were labelled with 10 μM of the fluorescent dye, 2′, 7′-bis(2-carboxyethyl)-5-(e6)-carboxyfluorescein acetoxymethyl ester (BCECF-AM; Molecular Probes Inc, Product No. B-1150) at 37° C. for 10 minutes. The excess dye was then removed by centrifugation at 500×g for 5 minutes and the cells were resuspended at a concentration of 1.2×10^7 cells ml^−1 in Hank's balanced salt solution (HBSS; Gibco BRL, Product No. 14190-094).
Equal volumes of compounds (dissolved in an appropriate solvent and diluted in HBSS containing 1 mM MnCl2) and the labelled Jurkat J6 cells, were added to the VCAM-1 coated plates and adhesion was allowed to proceed for 30 minutes at 37° C. Non, or loosely adhered cells, were removed by inversion of the plate and blotted with tissue paper. Two washes with PBS and further blotting were then performed, before the addition of 2% detergent (Triton-X®; Sigma Chemicals UK, Product No. X100). Counting was undertaken in a Wallac Viktor™ Fluorimeter, where low fluorescence values were indicative of compounds which had inhibited adhesion. All samples were assayed in singlicate and the following four parameter curve fit, shown by Equation (I) was applied: [formula]
Where a is the minimum, b is the Hill slope, c is the IC50 and d is the maximum. (Maximum and minimum values are those compared to adhesion in the absence of compound and in the presence of the dipotassium salt of 2 mM EDTA; Sigma Chemicals, UK, Product No. ED2P). Data is presented as the mean pIC50 with the standard error of the mean of n experiments.

T1 sequence (P13612 34-1032): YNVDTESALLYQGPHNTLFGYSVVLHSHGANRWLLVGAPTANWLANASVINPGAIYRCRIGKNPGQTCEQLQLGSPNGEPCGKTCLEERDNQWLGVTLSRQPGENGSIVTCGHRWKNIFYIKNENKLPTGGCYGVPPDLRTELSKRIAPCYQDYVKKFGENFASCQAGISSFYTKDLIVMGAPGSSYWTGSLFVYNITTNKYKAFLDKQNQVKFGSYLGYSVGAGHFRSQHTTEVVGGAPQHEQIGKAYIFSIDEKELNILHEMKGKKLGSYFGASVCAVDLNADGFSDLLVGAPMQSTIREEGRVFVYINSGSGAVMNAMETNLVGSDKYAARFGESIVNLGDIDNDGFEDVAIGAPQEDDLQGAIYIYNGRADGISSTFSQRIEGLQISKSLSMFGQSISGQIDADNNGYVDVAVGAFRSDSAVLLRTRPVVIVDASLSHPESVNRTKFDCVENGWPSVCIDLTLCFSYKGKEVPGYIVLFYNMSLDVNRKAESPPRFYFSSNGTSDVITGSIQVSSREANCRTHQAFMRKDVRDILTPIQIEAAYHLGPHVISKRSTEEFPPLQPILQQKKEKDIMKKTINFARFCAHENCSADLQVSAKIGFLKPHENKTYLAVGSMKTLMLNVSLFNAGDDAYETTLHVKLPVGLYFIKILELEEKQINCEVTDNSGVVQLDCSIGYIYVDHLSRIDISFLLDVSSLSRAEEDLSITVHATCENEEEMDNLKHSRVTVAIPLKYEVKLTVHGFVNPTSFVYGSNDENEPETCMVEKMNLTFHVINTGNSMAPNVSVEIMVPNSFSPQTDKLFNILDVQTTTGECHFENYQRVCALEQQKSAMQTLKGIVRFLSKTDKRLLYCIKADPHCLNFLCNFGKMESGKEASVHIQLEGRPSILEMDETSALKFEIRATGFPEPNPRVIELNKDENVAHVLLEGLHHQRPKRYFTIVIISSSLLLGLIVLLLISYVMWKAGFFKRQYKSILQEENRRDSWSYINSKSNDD
T1 sequence (P05556 21-798): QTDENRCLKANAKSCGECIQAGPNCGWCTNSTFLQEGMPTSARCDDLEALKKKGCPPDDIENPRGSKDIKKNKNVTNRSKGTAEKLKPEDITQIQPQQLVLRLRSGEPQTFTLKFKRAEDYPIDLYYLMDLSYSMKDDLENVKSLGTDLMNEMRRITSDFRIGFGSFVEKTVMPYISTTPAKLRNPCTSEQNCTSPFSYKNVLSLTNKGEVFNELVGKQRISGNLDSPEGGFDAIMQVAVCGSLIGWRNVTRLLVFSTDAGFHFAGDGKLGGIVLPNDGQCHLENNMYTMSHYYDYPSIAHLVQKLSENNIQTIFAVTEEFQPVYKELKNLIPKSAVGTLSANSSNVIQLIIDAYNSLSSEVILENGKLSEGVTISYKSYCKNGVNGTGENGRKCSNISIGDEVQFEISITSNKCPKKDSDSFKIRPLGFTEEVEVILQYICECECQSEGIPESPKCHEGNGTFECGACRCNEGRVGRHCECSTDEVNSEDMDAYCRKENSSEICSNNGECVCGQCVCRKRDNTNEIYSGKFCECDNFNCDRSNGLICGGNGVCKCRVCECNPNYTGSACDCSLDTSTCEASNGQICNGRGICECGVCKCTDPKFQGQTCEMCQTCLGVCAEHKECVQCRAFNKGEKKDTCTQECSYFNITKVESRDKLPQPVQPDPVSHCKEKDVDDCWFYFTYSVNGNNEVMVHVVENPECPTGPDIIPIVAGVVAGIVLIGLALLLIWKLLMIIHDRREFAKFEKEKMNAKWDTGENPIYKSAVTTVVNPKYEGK

Point of comparison: `CC(C)C[C@H](NC(=O)COc1cc2ccccc2cc1C(=O)N1CCCCC1)C(=O)N[C@@H](Cc1ccc(OC(=O)N2CCC(NC(=O)Cc3ccc(Cl)cc3)CC2)cc1)C(=O)O` [Example 50, (2S)-3-(4-{[(4-{[2-(4-Chlorophenyl)acetyl]amino}-1-piperidinyl)carbonyl]oxy}phenyl)-2-({(2S)-4-methyl-2-[(2-{[3-(1-piperidinylcarbonyl)-2-naphthyl]oxy}acetyl)amino]pentanoyl}amino)propanoic acid], IC50 25.1 nM. Against it:
- CC(C)C[C@H](NC(=O)COc1ccccc1C1CCCCC1)C(=O)N[C@@H](Cc1ccc(OC(=O)N2CCN(C(=O)c3ccco3)CC2)cc1)C(=O)O [Example 43, (2S)-2-[((2S)-2-{[2-(2-Cycohexylphenoxy)acetyl]amino}-4-methylpentanoyl)amino]-3-[4-({[4-(2-furoyl)-1-piperazinyl]carbonyl}oxy)phenyl]propanoic acid] — within 1.5-fold, 22.4 nM
- CC(=O)N1CCN(C(=O)Oc2ccc(C[C@H](NC(=O)[C@H](CC(C)C)NC(=O)c3cccc4c3oc3ccccc34)C(=O)O)cc2)CC1 [Example 18, (2S)-3-(4-{[(4-Acetyl-1-piperazinyl)carbonyl]oxy}phenyl)-2-({(2S)-2-[(dibenzo[b,d]furan-4-ylcarbonyl)amino]-4-methylpentanoyl}amino)propanoic acid] — 6.7-fold lower, 3.72 nM
- CC(C)C[C@H](NC(=O)COc1ccccc1C(=O)c1ccccc1)C(=O)N[C@@H](Cc1ccc(OC(=O)N2CCC(NC(=O)Cc3ccccc3)CC2)cc1)C(=O)O [Example 1, (2S)-2-[((2S)-2-{[2-(2-Benzoylphenoxy)acetyl]amino}-4-methylpentanoyl)amino]-3-{4-[({4-[(2-phenylacetyl)amino]-1-piperidinyl}carbonyl)oxy]phenyl}propanoic acid] — 1.9-fold lower, 13.2 nM
- CC(C)C[C@H](NC(=O)COc1ccc(C(=O)N2CCCCC2)cc1)C(=O)N[C@@H](Cc1ccc(OC(=O)N2CCOCC2)cc1)C(=O)O [Example 4, (2S)-2-{[(2S)-4-Methyl-2-({2-[4-(1-piperidinylcarbonyl)phenoxy]acetyl}amino)pentanoyl]amino}-3-{4-[(4-morpholinylcarbonyl)oxy]phenyl}propanoic acid] — 1.5-fold lower, 16.6 nM
- CC(C)C[C@H](NC(=O)COc1cc2ccccc2cc1C(=O)N1CCCCC1)C(=O)N[C@@H](Cc1ccc(OC(=O)N2CCC(NC(=O)Cc3ccccc3)CC2)cc1)C(=O)O [Example 2, (2S)-2-({(2S)-4-Methyl-2-[(2-{[3-(1-piperidinylcarbonyl)-2-naphthyl]oxy}acetyl)amino]pentanoyl}amino)-3-{4-[({4-[(2-phenylacetyl)amino]-1-piperidinyl}carbonyl)oxy]phenyl}propanoic acid] — 2.7-fold lower, 9.33 nM
- CC(=O)N1CCN(C(=O)Oc2ccc(C[C@H](NC(=O)[C@H](CC(C)C)NC(=O)COc3ccccc3I)C(=O)O)cc2)CC1 [Example 15, (2S)-3-(4-{[(4-Acetyl-1-piperazinyl)carbonyl]oxy}phenyl)-2-[((2S)-2-{[2-(2-iodophenoxy)acetyl]amino}-4-methylpentanoyl)amino]propanoic acid] — 9.3-fold lower, 2.69 nM
- CC(C)C[C@H](NC(=O)COc1ccccc1C(=O)c1ccccc1)C(=O)N[C@@H](Cc1ccc(OC(=O)N2CCOCC2)cc1)C(=O)O [Example 36, (2S)-2-[((2S)-2-{[2-(2-Benzoylphenoxy)acetyl]amino}-4-methylpentanoyl)amino]-3-{4-[(4-morpholinylcarbonyl)oxy]phenyl}propanoic acid] — 2-fold lower, 12.3 nM
- CC(C)C[C@H](NC(=O)c1cccc2c1oc1ccccc12)C(=O)N[C@@H](Cc1ccc(OC(=O)N2CCC(NC(=O)Cc3ccccc3)CC2)cc1)C(=O)O [Example 13, (2S)-2-({(2S)-2-[(Dibenzo[b,d]furan-4-ylcarbonyl)amino]-4-methylpentanoyl}amino)-3-{4-[({4-[(2-phenylacetyl)amino]-1-piperidinyl}carbonyl)oxy]phenyl}propanoic acid] — within 1.5-fold, 25.7 nM
